# Results taken from US20050032688A1, “Use of angiotensin II fragments and analogs thereof in tissue repair” (University of Southern California, priority 1993, published 2005).
# “Also recorded” adds a separate entry of the source. Read-outs that look alike come from different tables or passages of the source. Ends that are not written are not given here.
# Legend:
# [1] = test system: porcine aortic endothelial cells; conditions: cited from earlier work
# water intake = conditions: injected into the anterior diencephalons in the rat; cited from earlier work
# rat mesangial cells = conditions: through the AT1 receptor; cited from earlier work
# [2] = test system: motility, stereotypy and learning of conditioned avoidance responses; conditions: injected in the lateral cerebral ventricle, rats; cited from earlier work
# [3] = test system: neurons in the paraventricular nucleus; conditions: cited from earlier work
# blood pressure [4] = conditions: in vivo; cited from earlier work
# [5] = test system: rat isolated nodose ganglion; conditions: cited from earlier work
# [6] = test system: rat glomerulus preparations; conditions: through the AT1 receptor; cited from earlier work
# [7] = test system: porcine vascular smooth muscle cells; conditions: cited from earlier work
# [8] = test system: porcine coronary artery rings; conditions: perhaps through nitric oxide; cited from earlier work
# [9] = in contrast to AII; cited from earlier work
# human astrocytes = conditions: cited from earlier work
# blood pressure [10] = conditions: cited from earlier work
# rat adrenal medulla = conditions: cited from earlier work
# wound tissue = conditions: application to wound tissue; cited from earlier work
# [11] = test system: baroreceptor-heart-reflex; conditions: in vivo; cited from earlier work
# [12] = test system: full thickness dermal wounds; assay: Wound closure and granulation tissue in full thickness dermal wounds, carboxymethyl cellulose vehicle (Example 3); assay type: in vivo, Female Sprague Dawley rats; conditions: tested fragments of AII
# Procedure: Female Sprague Dawley rats, 175-200 g, were obtained from Simonsen Laboratories, Gilroy, Calif. On the day of surgery, the rats received intramuscular ketamine/rompum anesthesia prior to preparation for surgery. The rats were shaved and scrubbed with betadine. Two 1.5×1.5 cm full thickness dermal wounds were created on the dorsal surface of the rat. Following excision of the skin, the size of the wound was outlined on a glass slide and the medicament was administered ini 100 μl 10% low viscosity carboxymethyl cellulose (Sigma). The test materials were administered in a randomized fashion; all materials were tested at 100 μg/wound. Controls were treated with vehicle only. After administration of the materials, the rats were bandaged and allowed to recover from anesthesia. On days 1-4 after surgery, the rats were treated with an additional 100 μg of peptide formulation. At days 2, 4, 7 and 9, the area of the skin wounds were measured under methoxyflurane anesthesia (commercially available as Metofane from Pittman-Moore, Mundelein, Ill.). The area of the wound was determined by: (1) tracing the wound shape onto graph paper (1×1 mm squares); (2) cutting out the shape; (3) weighing the paper and comparing the weight with a 1.5×1.5 cm paper cutout; and (4) counting the number of squares. In addition, on days 2, 4 and 7, the area of granulation tissue was similarly determined.
# blood pressure [13] = conditions: intracerebroventricular infusion in the rat; concentrations 1000× higher than that of AII that increased blood pressure; cited from earlier work
substance,measurement,setting,value
"AI: a decapeptide called angiotensin I which is converted to angiotensin II (DRVYIHPFHL; Angiotensin-1; UniProt P01019 25-34, looked up)",release of prostaglandin E2 and 12,[1],stimulated
Asp-Arg-Val-Tyr (DRVY) [AII(1-4)],effect on water intake,water intake,only a slight effect
DRVYIH [AII(1-6)],choline production,rat mesangial cells,very weak effects
same,"motility, stereotypy and learning of conditioned avoidance responses (psychotropic activities)",[2],not active
Arg-Val-Tyr-Ile-His-Pro (RVYIHP) [AII(2-7)],excitation of neurons,[3],inactive
Asp-Arg-Val-Tyr-Ile-His-Pro (DRVYIHP) [AII(1-7)],amount required relative to AII to get a comparable pressor response,blood pressure [4],about 10000 ×
same,depressor effect,blood pressure [4],long depressor effect
same,pressor effect,blood pressure [4],weak pressor
same,effect on water intake,water intake,completely inactive
same,depolarization of nodose ganglion,[5],does not
same,excitation of neurons,[3],weaker
same,excitation of neurons,[3]; listed as Ang(1-7),excited
same,release of prostaglandin E2 and 12,[1],stimulated
same,"formation of cAMP in response to histamine, serotonin and parathyroid hormone",[6],did not have this effect
same,prostaglandin release,[7],increases
same,choline production,rat mesangial cells,very weak effects
same,dilation of coronary artery rings,[8],dilates
same,aldosterone release,[9],does not cause
same,catecholamine release,[9],does not cause
same,dipsogenic effect,[9],not dipsogenic
same,prostaglandin release,human astrocytes,increases
same,"dose at which pressor effects on blood pressure occur, relative to AII",blood pressure [10]; depending upon the model tested and route of administration,10000-100000 times the dose of AII
same,depressor effect on blood pressure,blood pressure [10]; may be mediated through prostanoid synthesis,depressor effect
Val-Tyr-Ile-His-Pro-Phe (VYIHPF) [AII(3-8)],dilation of coronary artery rings,[8],not observed
Asp-Arg-Val-Tyr-Ile-His-Pro-Phe (DRVYIHPF) [AII],evoked neuronal norepinephrine release,rat adrenal medulla,biphasic effect
same,spontaneous neuronal norepinephrine release,rat adrenal medulla,increasing
same,depolarization of nodose ganglion,[5],causes depolarization
same,excitation of neurons,[3],excited
same,release of prostaglandin E2 and 12,[1],did not have this effect
same,"formation of cAMP in response to histamine, serotonin and parathyroid hormone",[6],inhibited
same,prostaglandin release,[7],increases
same,release of intracellular Ca2+,[7],increases
same,choline production,rat mesangial cells,stimulates
same,dilation of coronary artery rings,[8],not observed
same,rate of wound healing,wound tissue,significantly increases
same,sensitivity of the baroreceptor-heart-reflex,[11],enhances
same,prostaglandin release,human astrocytes,increases
same,release of intracellular Ca2+,human astrocytes,increases
same,"motility, stereotypy and learning of conditioned avoidance responses (psychotropic activities)",[2],increased
Val-Tyr-Ile-His-Pro (VYIHP) [AII(3-7)],depressor effect,blood pressure [4],no depressor effect
same,pressor effect,blood pressure [4],less of a pressor effect than AII(1-7)
Try-Ile-His-Pro-Phe (YIHPF) [AII(4-8)],effectiveness in wound healing,[12],not to be effective; also recorded: ineffective
same,effect on blood pressure,blood pressure [13],minimal effect
same,effect on water intake,water intake,only a slight effect
Ile-His-Pro-Phe (IHPF) [AII(5-8)],effect on blood pressure,blood pressure [13],minimal effect
same,effect on water intake,water intake,only a slight effect
His-Pro-Phe (HPF) [AII(6-8)],effectiveness in wound healing,[12],not to be effective
Arg-Val-Tyr-Ile-His (RVYIH; printed: Arg-Val-Tyr-Ile-His) [AII(2-6)],"motility, stereotypy and learning of conditioned avoidance responses (psychotropic activities)",[2],not active
